Reference: PubChem BioAssay (NCI)
Values joined by “and” are separate entries in the source; they are usually repeats but may differ in a detail not shown here. Identical values can stand only once.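 Results reflect a 48-hour exposure of cells in 96-well plates to compound at five concentrations. GI50 marks 50% less growth. Definition used: TGI = concentration required for complete inhibition of growth.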

Key:
Experiment in all cases: NCI-60 cell line screen, 48 h
A549 NSCLC = tested on: A549 NSCLC
OVCAR-3 ovarian = tested on: OVCAR-3 ovarian
IGROV1 ovarian = tested on: IGROV1 ovarian
OVCAR-4 ovarian = tested on: OVCAR-4 ovarian
SF-295 CNS = tested on: SF-295 CNS
HOP-62 NSCLC = tested on: HOP-62 NSCLC
HCT-15 colon = tested on: HCT-15 colon
SF-268 CNS = tested on: SF-268 CNS
OVCAR-8 ovarian = tested on: OVCAR-8 ovarian
K-562 leukemia = tested on: K-562 leukemia
SK-MEL-5 melanoma = tested on: SK-MEL-5 melanoma
MALME-3M melanoma = tested on: MALME-3M melanoma
A498 renal = tested on: A498 renal
COLO 205 colon = tested on: COLO 205 colon
CAKI-1 renal = tested on: CAKI-1 renal
PC-3 prostate = tested on: PC-3 prostate
HL-60(TB) leukemia = tested on: HL-60(TB) leukemia
MOLT-4 leukemia = tested on: MOLT-4 leukemia
U251 CNS = tested on: U251 CNS
SNB-19 CNS = tested on: SNB-19 CNS
SNB-75 CNS = tested on: SNB-75 CNS
SK-MEL-2 melanoma = tested on: SK-MEL-2 melanoma
CCRF-CEM leukemia = tested on: CCRF-CEM leukemia
DU-145 prostate = tested on: DU-145 prostate
MCF7 breast = tested on: MCF7 breast
RPMI-8226 leukemia = tested on: RPMI-8226 leukemia
BT-549 breast = tested on: BT-549 breast
EKVX NSCLC = tested on: EKVX NSCLC
786-0 renal = tested on: 786-0 renal
KM12 colon = tested on: KM12 colon
SW-620 colon = tested on: SW-620 colon
MDA-MB-231 breast = tested on: MDA-MB-231 breast
T-47D breast = tested on: T-47D breast
NCI-H460 lung = tested on: NCI-H460 lung
NCI/ADR-RES ovarian = tested on: NCI/ADR-RES ovarian
M14 melanoma = tested on: M14 melanoma
HT29 colon = tested on: HT29 colon
ACHN renal = tested on: ACHN renal
HS 578T breast = tested on: HS 578T breast
NCI-H522 lung = tested on: NCI-H522 lung
SK-OV-3 ovarian = tested on: SK-OV-3 ovarian
NCI-H23 lung = tested on: NCI-H23 lung
SN12C renal = tested on: SN12C renal
SF-539 CNS = tested on: SF-539 CNS
OVCAR-5 ovarian = tested on: OVCAR-5 ovarian
TK-10 renal = tested on: TK-10 renal
UACC-62 melanoma = tested on: UACC-62 melanoma
HCT-116 colon = tested on: HCT-116 colon
UO-31 renal = tested on: UO-31 renal
SR leukemia = tested on: SR leukemia
SK-MEL-28 melanoma = tested on: SK-MEL-28 melanoma
HOP-92 NSCLC = tested on: HOP-92 NSCLC
NCI-H226 lung = tested on: NCI-H226 lung
UACC-257 melanoma = tested on: UACC-257 melanoma
MDA-MB-435 = tested on: MDA-MB-435
RXF 393 renal = tested on: RXF 393 renal
LOX IMVI melanoma = tested on: LOX IMVI melanoma
HCC-2998 colon = tested on: HCC-2998 colon

## COc1c/c(=C2/C=c3ccccc3=N2)[nH]/c1=C/c1[nH]c(C)cc1C
A549 NSCLC
  GI50: 219 nM
  TGI: > 100 µM
OVCAR-3 ovarian
  GI50: 46 nM
  TGI: 1.02 µM
IGROV1 ovarian
  GI50: 72.4 nM
  TGI: > 100 µM
OVCAR-4 ovarian
  GI50: 106 nM
  TGI: > 100 µM
SF-295 CNS
  GI50: 149 nM
  TGI: 0.628 µM
HOP-62 NSCLC
  GI50: 45.8 nM
  TGI: 0.459 µM
HCT-15 colon
  GI50: 36.3 nM
  TGI: > 100 µM
SF-268 CNS
  GI50: 30.9 nM
  TGI: > 100 µM
OVCAR-8 ovarian
  GI50: 44.8 nM
  TGI: > 100 µM
K-562 leukemia
  GI50: 152 nM
  TGI: 9.91 µM
SK-MEL-5 melanoma
  GI50: 30.4 nM
  TGI: 0.0835 µM
MALME-3M melanoma
  GI50: 277 nM
  TGI: 1.62 µM
A498 renal
  GI50: 267 nM
  TGI: 4.31 µM
COLO 205 colon
  GI50: 65.9 nM
  TGI: 1.26 µM
CAKI-1 renal
  GI50: 34.6 nM
  TGI: 1.2 µM
PC-3 prostate
  GI50: 59 nM
  TGI: > 100 µM
HL-60(TB) leukemia
  GI50: 50 nM
  TGI: 2.77 µM
MOLT-4 leukemia
  GI50: 29.3 nM
  TGI: 2.95 µM
U251 CNS
  GI50: 45.4 nM
  TGI: 1.52 µM
SNB-19 CNS
  GI50: 598 nM
  TGI: > 100 µM
SNB-75 CNS
  GI50: 108 nM
  TGI: > 100 µM
SK-MEL-2 melanoma
  GI50: 29 nM
  TGI: 0.119 µM
CCRF-CEM leukemia
  GI50: 31.3 nM
  TGI: > 100 µM
DU-145 prostate
  GI50: 150 nM
  TGI: > 100 µM
MCF7 breast
  GI50: 64.7 nM
  TGI: 2.58 µM
RPMI-8226 leukemia
  GI50: 53.3 nM
  TGI: 1.95 µM

## CCN(CC)CCNc1c(OC)cc(C)c2sc3ccccc3c(=O)c12
A549 NSCLC
  TGI: 18 µM
BT-549 breast
  TGI: 24.2 µM
EKVX NSCLC
  TGI: 32500 nM
OVCAR-3 ovarian
  TGI: 26.2 µM
IGROV1 ovarian
  TGI: 20.7 µM
786-0 renal
  TGI: 28.4 µM
OVCAR-4 ovarian
  TGI: 14.8 µM
SF-295 CNS
  TGI: 14.4 µM
KM12 colon
  TGI: 17.2 µM
SW-620 colon
  TGI: 17.9 µM
MDA-MB-231 breast
  TGI: 10.1 µM
HOP-62 NSCLC
  TGI: 25 µM
HCT-15 colon
  TGI: 14.4 µM
T-47D breast
  TGI: 39.9 µM
NCI-H460 lung
  TGI: 18.9 µM
NCI/ADR-RES ovarian
  TGI: 19.2 µM
M14 melanoma
  TGI: 12.1 µM
SF-268 CNS
  TGI: 25.7 µM
HT29 colon
  TGI: 6.42 µM
OVCAR-8 ovarian
  TGI: 26.1 µM
K-562 leukemia
  TGI: 4.04 µM
ACHN renal
  TGI: 15.8 µM
SK-MEL-5 melanoma
  TGI: 3.4 µM
HS 578T breast
  TGI: 24.8 µM
MALME-3M melanoma
  TGI: 6.08 µM
NCI-H522 lung
  TGI: 20 µM
SK-OV-3 ovarian
  TGI: 31.3 µM
NCI-H23 lung
  TGI: 29 µM
COLO 205 colon
  TGI: 5.02 µM
CAKI-1 renal
  TGI: 20.6 µM
PC-3 prostate
  TGI: 20.8 µM
SN12C renal
  TGI: 9.92 µM
SF-539 CNS
  TGI: 23 µM
OVCAR-5 ovarian
  TGI: 13.4 µM
HL-60(TB) leukemia
  TGI: 18.9 µM
MOLT-4 leukemia
  TGI: 4.58 µM
U251 CNS
  TGI: 16 µM
SNB-19 CNS
  TGI: 26.6 µM
TK-10 renal
  TGI: 21 µM
UACC-62 melanoma
  TGI: 3.36 µM
HCT-116 colon
  TGI: 16.3 µM
UO-31 renal
  TGI: 20.3 µM
SNB-75 CNS
  TGI: 28.7 µM
SK-MEL-2 melanoma
  TGI: 27.9 µM
SR leukemia
  TGI: 5.33 µM
SK-MEL-28 melanoma
  TGI: 5.1 µM
HOP-92 NSCLC
  TGI: 32.2 µM
NCI-H226 lung
  TGI: 12.8 µM
DU-145 prostate
  TGI: 24.2 µM
MCF7 breast
  TGI: 18.7 µM
RPMI-8226 leukemia
  TGI: 3.05 µM
UACC-257 melanoma
  TGI: 3.6 µM
MDA-MB-435
  TGI: 8160 nM
RXF 393 renal
  TGI: 34 µM

## CSC1SCC2C(=O)N(C)C3(CC3C)C(=O)OCC(NC(=O)c3nc4ccccc4cc3O)C(=O)NC(C)C(=O)N(C)C1C(=O)N(C)C1(CC1C)C(=O)OCC(NC(=O)c1nc3ccccc3cc1O)C(=O)NC(C)C(=O)N2C (stereo not given)
A549 NSCLC
  TGI: 20.1 µM
EKVX NSCLC
  TGI: 648 nM and 99.2 nM
OVCAR-3 ovarian
  TGI: < 0.0001 µM
IGROV1 ovarian
  TGI: 0.281 µM
OVCAR-4 ovarian
  TGI: 0.000325 µM
KM12 colon
  TGI: < 0.0001 µM
SW-620 colon
  TGI: > 100 µM
T-47D breast
  TGI: > 100 µM
NCI-H460 lung
  TGI: 0.875 µM
NCI/ADR-RES ovarian
  GI50: 124 nM
  TGI: 72.7 µM
M14 melanoma
  TGI: < 0.0001 µM
SF-268 CNS
  TGI: 0.00684 µM and 0.0159 µM
HT29 colon
  TGI: 4.21 µM
K-562 leukemia
  TGI: < 0.0001 µM
ACHN renal
  TGI: > 100 µM
HS 578T breast
  TGI: < 0.0001 µM
A498 renal
  TGI: < 0.0001 µM
SK-OV-3 ovarian
  TGI: 17.2 µM
NCI-H23 lung
  TGI: < 0.0001 µM
COLO 205 colon
  TGI: < 0.0001 µM
CAKI-1 renal
  TGI: 0.0135 µM
SF-539 CNS
  TGI: < 0.0001 µM
HL-60(TB) leukemia
  TGI: < 0.0001 µM
U251 CNS
  TGI: < 0.0001 µM
SNB-19 CNS
  TGI: 6.9 µM
TK-10 renal
  TGI: 0.000416 µM
UACC-62 melanoma
  TGI: < 0.0001 µM
HCT-116 colon
  TGI: 16.4 µM
UO-31 renal
  TGI: 0.0093 µM
SNB-75 CNS
  TGI: < 0.0001 µM
SR leukemia
  TGI: < 0.0001 µM
LOX IMVI melanoma
  TGI: < 0.1 nM
CCRF-CEM leukemia
  TGI: < 0.0001 µM
SK-MEL-28 melanoma
  TGI: < 0.0001 µM
HOP-92 NSCLC
  TGI: < 0.0001 µM
NCI-H226 lung
  TGI: < 0.0001 µM
DU-145 prostate
  TGI: > 100 µM
MCF7 breast
  TGI: 10.3 µM
RPMI-8226 leukemia
  TGI: < 0.0001 µM
UACC-257 melanoma
  TGI: < 0.0001 µM
MDA-MB-435
  TGI: < 0.1 nM
HCC-2998 colon
  TGI: < 0.0001 µM
RXF 393 renal
  TGI: < 0.0001 µM

## COc1ccc(NC2Oc3cc4c(cc3C(c3cc(OC)c(O)c(OC)c3)C2C)OCO4)cc1 (stereo not given)
A549 NSCLC
  TGI: 23.5 µM
BT-549 breast
  TGI: > 100 µM
OVCAR-3 ovarian
  TGI: > 100 µM
IGROV1 ovarian
  TGI: > 100 µM
786-0 renal
  TGI: 37.9 µM
OVCAR-4 ovarian
  TGI: > 100 µM
SF-295 CNS
  TGI: 60.5 µM
KM12 colon
  TGI: > 100 µM
SW-620 colon
  TGI: > 100 µM
MDA-MB-231 breast
  TGI: 11 µM
HCT-15 colon
  TGI: 11.3 µM
T-47D breast
  TGI: > 100 µM
NCI-H460 lung
  TGI: 23.3 µM
NCI/ADR-RES ovarian
  TGI: 98 µM
M14 melanoma
  TGI: > 100 µM
SF-268 CNS
  TGI: > 100 µM
HT29 colon
  TGI: > 100 µM
OVCAR-8 ovarian
  TGI: 67.7 µM
K-562 leukemia
  TGI: 12.3 µM
ACHN renal
  TGI: 32.1 µM
SK-MEL-5 melanoma
  TGI: 4.34 µM
MALME-3M melanoma
  TGI: 35.2 µM
NCI-H522 lung
  TGI: 27.3 µM
A498 renal
  TGI: 31.7 µM
NCI-H23 lung
  TGI: > 100 µM
COLO 205 colon
  TGI: 39 µM
CAKI-1 renal
  TGI: 30 µM
PC-3 prostate
  TGI: > 100 µM
SN12C renal
  TGI: 11.7 µM
SF-539 CNS
  TGI: 25.6 µM
OVCAR-5 ovarian
  TGI: 73.7 µM
HL-60(TB) leukemia
  TGI: 4.51 µM
U251 CNS
  TGI: 35.1 µM
SNB-19 CNS
  TGI: > 100 µM
TK-10 renal
  TGI: 17.7 µM
UACC-62 melanoma
  TGI: 35.2 µM
HCT-116 colon
  TGI: 29.6 µM
UO-31 renal
  TGI: 31.3 µM
SNB-75 CNS
  TGI: 15 µM
SK-MEL-2 melanoma
  TGI: 6.72 µM
SK-MEL-28 melanoma
  TGI: 37.3 µM
HOP-92 NSCLC
  TGI: > 100 µM
NCI-H226 lung
  TGI: 93.6 µM
DU-145 prostate
  TGI: > 100 µM
MCF7 breast
  TGI: > 100 µM
RPMI-8226 leukemia
  TGI: 12.9 µM
UACC-257 melanoma
  TGI: > 100 µM
MDA-MB-435
  TGI: 2510 nM
HCC-2998 colon
  TGI: 21.7 µM
RXF 393 renal
  TGI: 61.8 µM
